# PubChem BioAssay AID330 (DTP/NCI, 2004)
# Where “and” joins values, the source holds several entries; their conditions need not be identical. Equal entries are not always repeated. Inconclusive results and toxic doses are left out.
# Tested on: P388 leukemia ip, CD2F1 mice, survival T/C
# Test: NCI In Vivo Anticancer Drug Screen. Data for tumor model P388 Leukemia (intraperitoneal) in CD2F1 (CDF1) mice
# Details: endpoint: median survival time, higher = longer survival
# Outline: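 Mice carrying the transplanted tumor received test compound or vehicle. Survival was recorded in each group, and the value is the treated-group measurement divided by that of the vehicle-treated control group.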
# [1] = dose: 50.0 mg/kg/injection, schedule: Q01DX009 (ip), vehicle: saline with Tween-80
# [2] = dose: 200.0 mg/kg/injection, schedule: Q04DX003 (ip), vehicle: saline with Tween-80
# [3] = dose: 50.0 mg/kg/injection, schedule: Q01DX009 (ip), vehicle: saline
# [4] = dose: 100.0 mg/kg/injection, schedule: Q01DX009 (ip), vehicle: saline
# [5] = dose: 200.0 mg/kg/injection, schedule: Q01DX009 (ip), vehicle: saline
# [6] = dose: 50.0 mg/kg/injection, schedule: Q01DX005 (ip), vehicle: Klucel (hydroxypropylcellulose) (HPC)
# [7] = dose: 100.0 mg/kg/injection, schedule: Q01DX005 (ip), vehicle: Klucel (hydroxypropylcellulose) (HPC)
# [8] = dose: 200.0 mg/kg/injection, schedule: Q01DX005 (ip), vehicle: Klucel (hydroxypropylcellulose) (HPC)
# [9] = dose: 50.0 mg/kg/injection, schedule: Q01DX005 (ip), vehicle: saline with Tween-80
# [10] = dose: 100.0 mg/kg/injection, schedule: Q01DX005 (ip), vehicle: saline with Tween-80
# [11] = dose: 200.0 mg/kg/injection, schedule: Q01DX005 (ip), vehicle: saline with Tween-80
compound,measurement,setting,value
CCCC(=O)OCC1OC(n2cnc3c(=S)nc(N)[nH]c32)C(OC(=O)CCC)C1OC(=O)CCC (centres undefined),T/C,"dose: 1.25 mg/kg/injection, schedule: Q04DX003 (ip), vehicle: saline with Tween-80",100 % of control
same,T/C,"dose: 2.5 mg/kg/injection, schedule: Q04DX003 (ip), vehicle: saline with Tween-80",104 % of control
same,T/C,"dose: 5.0 mg/kg/injection, schedule: Q04DX003 (ip), vehicle: saline with Tween-80",113 % of control
same,T/C,"dose: 10.0 mg/kg/injection, schedule: Q04DX003 (ip), vehicle: saline with Tween-80",155 % of control
same,T/C,"dose: 20.0 mg/kg/injection, schedule: Q04DX003 (ip), vehicle: saline with Tween-80",165 % of control
same,T/C,"dose: 25.0 mg/kg/injection, schedule: Q01DX009 (ip), vehicle: saline with Tween-80",122 % of control
same,T/C,"dose: 25.0 mg/kg/injection, schedule: Q04DX003 (ip), vehicle: saline with Tween-80",150 % of control
same,T/C,[1],90 % of control
same,T/C,"dose: 50.0 mg/kg/injection, schedule: Q04DX003 (ip), vehicle: saline with Tween-80",116 % of control
same,T/C,[2],118 % of control
O=[N+]([O-])c1ccc(CS(=O)(=O)c2ccccc2)o1,T/C,"dose: 50.0 mg/kg/injection, schedule: Q01DX009 (ip), vehicle: suspension in saline",103 % of control
same,T/C,"dose: 100.0 mg/kg/injection, schedule: Q01DX009 (ip), vehicle: suspension in saline",100 % of control
same,T/C,"dose: 200.0 mg/kg/injection, schedule: Q01DX009 (ip), vehicle: suspension in saline",105 % of control
C[N+](C)(C)CCOP(=O)([O-])OC1CCCC1,T/C,[3],103 % of control
same,T/C,[4],100 % of control
same,T/C,[5],105 % of control
Cc1cccc(C2=Nc3ccccc3N3CC=CC=C23)c1,T/C,[1],110 % of control
same,T/C,"dose: 100.0 mg/kg/injection, schedule: Q01DX009 (ip), vehicle: saline with Tween-80",97 % of control
same,T/C,"dose: 200.0 mg/kg/injection, schedule: Q01DX009 (ip), vehicle: saline with Tween-80",92 % of control
c1ccc2c(c1)OCc1nccn1-2,T/C,"dose: 60.0 mg/kg/injection, schedule: Q01DX005 (ip), vehicle: Klucel (hydroxypropylcellulose) (HPC)",99 % of control
same,T/C,"dose: 120.0 mg/kg/injection, schedule: Q01DX005 (ip), vehicle: Klucel (hydroxypropylcellulose) (HPC)",100 % of control
N/C(=N\OC(=O)Nc1ccc(CSc2ccc(Cl)cc2)o1)c1ccccn1,T/C,"dose: 12.5 mg/kg/injection, schedule: Q01DX005 (ip), vehicle: Klucel (hydroxypropylcellulose) (HPC)",106 % of control and 109 % of control
same,T/C,"dose: 25.0 mg/kg/injection, schedule: Q01DX005 (ip), vehicle: Klucel (hydroxypropylcellulose) (HPC)",107 % of control and 110 % of control
same,T/C,[6],110 % of control and 114 % of control and 120 % of control
same,T/C,[7],109 % of control and 111 % of control
Cc1nc2c(cnn2C)c(=O)n1C,T/C,[6],111 % of control
same,T/C,[7],111 % of control
same,T/C,[8],111 % of control
S=C(NCCN1CCN2Cc3[nH]c4ccccc4c3CC2C1)Nc1ccccc1 (centres undefined),T/C,[9],94 % of control
same,T/C,[10],91 % of control
same,T/C,[11],102 % of control
CCCCC(CC)C(=O)N1CCOCC1 (centres undefined),T/C,"dose: 100.0 mg/kg/injection, schedule: Q04DX003 (ip), vehicle: saline with Tween-80",100 % of control
same,T/C,[2],100 % of control
same,T/C,"dose: 400.0 mg/kg/injection, schedule: Q04DX003 (ip), vehicle: saline with Tween-80",100 % of control
CCCCCCCCCCCCCCCC(=O)OCC(CO)OC(=O)CCCCCCCCCCCCCCC (centres undefined),T/C,"dose: 50.0 mg/kg/injection, schedule: Q01DX009 (ip), vehicle: Klucel (hydroxypropylcellulose) (HPC)",91 % of control
same,T/C,"dose: 100.0 mg/kg/injection, schedule: Q01DX009 (ip), vehicle: Klucel (hydroxypropylcellulose) (HPC)",87 % of control
same,T/C,"dose: 200.0 mg/kg/injection, schedule: Q01DX009 (ip), vehicle: Klucel (hydroxypropylcellulose) (HPC)",89 % of control
CCCCCCCC[N+]1([O-])CCOCC1,T/C,[3],108 % of control
same,T/C,[4],97 % of control
same,T/C,[5],88 % of control
O=c1c2[nH]c3ccccc3sc=2c(=O)n1-c1c(F)c(F)c(F)c(F)c1F,T/C,[9],109 % of control
same,T/C,[10],103 % of control
same,T/C,[11],100 % of control
COc1c(OC)c(OC)c(-c2cc(=O)c3c(OC)c(OC)c(OC)c(OC)c3o2)c(OC)c1OC,T/C,[6],94 % of control
same,T/C,[7],88 % of control
same,T/C,[8],91 % of control
O=[N+]([O-])c1ccc(S(=O)(=O)Cc2ccccc2)c2nonc12,T/C,"dose: 3.12 mg/kg/injection, schedule: Q01DX009 (ip), vehicle: saline with Tween-80",99 % of control
same,T/C,"dose: 6.25 mg/kg/injection, schedule: Q01DX009 (ip), vehicle: saline with Tween-80",107 % of control
same,T/C,"dose: 12.5 mg/kg/injection, schedule: Q01DX009 (ip), vehicle: saline with Tween-80",100 % of control
